# “And” between values parts separate entries of the source, which are not always exact repeats. Equal entries are not always repeated.
# Legend:
# [1] = system: Unidentified Green Leafhopper; assay: Field trial, stomach poison test; type: in vivo; parameters: key: mortality rating on a 0 to 9 scale
# Method in brief: (§1)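 Leaves from infested plants sprayed (10 psi) or dipped in test compound at several concentrations, air-dried, then five or ten insects placed per dish, one or two replicates. Mortality scored 0 to 9 at 24, 48 and 72 h, averaged per concentration.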
# [2] = system: Tarnished Plant Bug Adults; assay: Field trial, stomach poison test; type: in vivo; parameters: key: mortality rating on a 0 to 9 scale
# Method in brief: as §1
# [3] = system: Potato Flea Beetle Adults; assay: Field trial, contact poison test; type: in vivo
# Method in brief: (§2)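 Mortality after direct spraying was scored at 24, 48 and 72 hours where applicable, using a 0–9 rating tied to 10% bands. Plants bearing insects received atomized compound at 10 psi over a range of concentrations.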
# Alfalfa Weevil Larvae [4] = assay: Field trial, contact poison test; type: in vivo
# Method in brief: as §2
# Asparagus Beetles Adults = assay: Field trial, contact poison test; type: in vivo
# Method in brief: as §2
# Alfalfa Weevil Larvae [5] = assay: Field trial, topical application; type: in vivo
# Protocol: The results are read at 24, 48, and 72 hours when applicable. The rating scale is 0 to 9 where 0 = 0-10 percent and 9 = 91-100 percent mortality.
# In a variation of the above test, 1 microliter of a test solution containing a predetermined number of micrograms of benzimidazole was applied directly to larvae or adult insects.
# Using the above methods, field trials were carried out against species of 5 orders of insects. The results, which are summarized in the following tables, give the average mortality for the particular insect with a given benzimidazole for each concentration employed. […] These tables contain all results obtained during the summer trials.
# Confused Flour Beetle = assay: Field trial (first summer), topical; type: in vivo
# Method in brief: (§3)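 Field trial from the first summer in which 1 µl of test solution holding a set number of micrograms of benzimidazole was applied topically to larvae or adult insects. Mortality at a given route and concentration was scored on a 0–9 scale.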
# Picnic Beetle [6] = assay: Field trial (first summer), topical; type: in vivo; conditions: .078125 μg/μl
# Method in brief: as §3
# Picnic Beetle [7] = assay: Field trial (first summer), stomach; type: in vivo; conditions: 250 ppm
# Protocol: Leaves from the infested plant are treated with different concentrations of the test compounds, either by spraying with a DeVilbiss Special Atomizer (5004) at 10 psi or by dipping the leaves in solutions containing the compound. The leaves are then allowed to air dry.
# After the leaves have dryed, they are placed in plastic petri dishes (100 × 25 mm), then the insects are counted out into each dish, five or ten insects per dish depending on the number of insects available. There are one or two replicates and usually two or three rates with each compound. Mortality results are taken at 24, 48 and 72 hours. The rating scale is 0 to 9.
# During the previous summer similar field trials were conducted employing the same tests as heretofore but with some additional species of insects not included in the later tests. The results listed below are for tests in which an insect mortality was established by a given application route and at a given concentration in a particular test. The same 0 - 9 scoring system is used as is the designation of compounds by alphabetical symbols.
# Two-spotted Spider Mite = Two-spotted Spider Mite test; type: in vivo, Tetranychus urticae (Acarina); conditions: 48 h
# Protocol: The procedure in this test is the same as that in the previous aphid test, except that about 100 two-spotted spider mites from a stock colony raised on squash plants are transferred to a cut squash cotyledon. The mortality is estimated 48 hours after spraying. The same rating scale is used.
# Melon Aphid = Melon Aphid Test; type: in vivo, Aphis gossypii (Hemiptera); conditions: 24 h
# Description: Four blue hubbard squash seeds are planted per container in vermiculite and the containers watered from the bottom. After 6 days, the two weakest plants are cut off and one cotyledon and the primary leaves are removed from each of the two remaining plants. The remaining cotyledon is infested with 100 melon aphids from a stock colony by pinning the cotyledon against an aphid-infested squash cotyledon from the colony and allowing the aphids to transfer. After transfer, the colony leaf is removed. Forty-eight hours later, the infested leaves are sprayed to wetting with formulations containing graded amounts of the insecticide using a DeVilbiss atomizer at 10 psi held at 12-15 inches from the plant. Controls consist of two infested, unsprayed squash plants and two infested plants sprayed to wetting with a formulation containing 100 ppm malathion as a reference standard. The mortality is estimated 24 hours after spraying by observation using a 10 power dissecting microscope. The same rating scale is used as before.
# Southern Armyworm = Southern Armyworm Test; type: in vivo, Prodenia eridania (Lepidoptera); conditions: 48 h
# Protocol: Ten uniform Southern armyworm larvae about 1-1.5 cm. in length, grown on Henderson lima beans, are placed on excized bean leaves in petri dishes. The bean leaves are obtained and sprayed with the insecticide in the same way as are the snap bean leaves in the Mexican bean beetle test. The reference standards in this instance are leaves sprayed with 5 ml. 100 ppm DDT solution. Mortality counts are made 48 hours after spraying and again moribund larvae are counted as dead. Missing larvae which have probably been eaten are considered alive. The same rating scale is used as in the Mexican bean beetle test.
# House Fly = assay: Housefly (Contact) Test; type: in vivo, Musca domestica (Diptera); conditions: 24 h
compound,measurement,setting,value
"O=[N+]([O-])c1cc(C(F)(F)F)cc2nc(C(F)(F)F)[nH]c12 [A, 2,6-bis(trifluoromethyl)-4-nitrobenzimidazole]",average mortality rating,[1]; 10 ppm,4
same,average mortality rating,[1]; 25 ppm,2
same,average mortality rating,[1]; 50 ppm,6
same,average mortality rating,[2]; 10 ppm,3
same,average mortality rating,[2]; 25 ppm,1
same,average mortality rating,[2]; 50 ppm,2
same,average mortality rating,[3]; 10 ppm,9 (91-100 percent mortality)
same,average mortality rating,[3]; 25 ppm,9 (91-100 percent mortality)
same,average mortality rating,[3]; 50 ppm,8
same,average mortality rating,[3]; 100 ppm,8
same,average mortality rating,[3]; 250 ppm,9 (91-100 percent mortality)
same,average mortality rating,Alfalfa Weevil Larvae [4]; 500 ppm,3
same,average mortality rating,Alfalfa Weevil Larvae [4]; 750 ppm,3
same,average mortality rating,Alfalfa Weevil Larvae [4]; 1000 ppm,5
same,average mortality rating,Asparagus Beetles Adults; 10 ppm,7
same,average mortality rating,Asparagus Beetles Adults; 25 ppm,7
same,average mortality rating,Asparagus Beetles Adults; 50 ppm,8
same,average mortality rating,Alfalfa Weevil Larvae [5]; 0.03 μg/μl,2
same,average mortality rating,Alfalfa Weevil Larvae [5]; 0.07 μg/μl,2
same,average mortality rating,Alfalfa Weevil Larvae [5]; 0.1 μg/μl,1
same,insect mortality rating,Confused Flour Beetle; .078125 μg/μl,9 (91-100 percent mortality)
same,insect mortality rating,Picnic Beetle [6],9 (91-100 percent mortality)
same,insect mortality rating,Picnic Beetle [7],9 (91-100 percent mortality)
"CCCCCCOC(=O)n1c(C(F)(F)F)nc2c([N+](=O)[O-])cc(C(F)(F)F)cc21 [E, n-hexyl 2,6-bis(trifluoromethyl)-4-nitro-1-benzimidazolecarboxylate]",average mortality rating,[1]; 10 ppm,4
same,average mortality rating,[1]; 25 ppm,7
same,average mortality rating,[1]; 50 ppm,7
same,average mortality rating,[2]; 10 ppm,1
same,average mortality rating,[2]; 25 ppm,2
same,average mortality rating,[2]; 50 ppm,3
same,mortality rating,Two-spotted Spider Mite; 5 ppm,.5
same,mortality rating,Two-spotted Spider Mite; 10 ppm,8.5
same,mortality rating,Melon Aphid; 5 ppm,1.5
same,mortality rating,Melon Aphid; 100 ppm,9.5
same,mortality rating,Southern Armyworm; 500 ppm,5.0
same,mortality rating,Southern Armyworm; 1000 ppm,7.5
same,mortality rating,House Fly; 10 ppm,4.5
same,mortality rating,House Fly; 50 ppm,1.5
same,average mortality rating,[3]; 10 ppm,6
same,average mortality rating,[3]; 25 ppm,9 (91-100 percent mortality)
same,average mortality rating,[3]; 50 ppm,9 (91-100 percent mortality)
same,average mortality rating,[3]; 100 ppm,9 (91-100 percent mortality)
same,average mortality rating,[3]; 250 ppm,9 (91-100 percent mortality)
same,average mortality rating,Alfalfa Weevil Larvae [4]; 500 ppm,4
same,average mortality rating,Alfalfa Weevil Larvae [4]; 750 ppm,2
same,average mortality rating,Alfalfa Weevil Larvae [4]; 1000 ppm,4
same,average mortality rating,Asparagus Beetles Adults; 10 ppm,7
same,average mortality rating,Asparagus Beetles Adults; 25 ppm,8
same,average mortality rating,Asparagus Beetles Adults; 50 ppm,9 (91-100 percent mortality)
same,average mortality rating,Alfalfa Weevil Larvae [5]; 0.03 μg/μl,2
same,average mortality rating,Alfalfa Weevil Larvae [5]; 0.07 μg/μl,2
same,average mortality rating,Alfalfa Weevil Larvae [5]; 0.1 μg/μl,4
same,insect mortality rating,Confused Flour Beetle; .3125 μg/μl,9 (91-100 percent mortality)
same,insect mortality rating,Picnic Beetle [6],9 (91-100 percent mortality)
same,insect mortality rating,Picnic Beetle [7],9 (91-100 percent mortality)
"mixture of methyl 2,6-bis(trifluoromethyl)-4-nitro-1-benzimidazolecarboxylate and methyl 2,5-bis(trifluoromethyl)-7-nitro-1-benzimidazolecarboxylate",average mortality rating,[1]; 10 ppm,5
same,average mortality rating,[1]; 25 ppm,4
same,average mortality rating,[1]; 50 ppm,6
same,average mortality rating,[2]; 25 ppm,3
same,average mortality rating,[2]; 50 ppm,7 and 4
same,mortality rating,Two-spotted Spider Mite; 10 ppm,3 (31-40)
same,mortality rating,Two-spotted Spider Mite; 25 ppm,4 (41-50)
same,mortality rating,Two-spotted Spider Mite; 50 ppm,9 (91-100)
same,mortality rating,Two-spotted Spider Mite; 100 ppm,6 (61-70)
same,mortality rating,Two-spotted Spider Mite; 250 ppm,9 (91-100)
same,mortality rating,Two-spotted Spider Mite; 500 ppm,9 (91-100)
same,mortality rating,Two-spotted Spider Mite; 1000 ppm,9 (91-100)
same,mortality rating,Melon Aphid; 25 ppm,0 (0-10)
same,mortality rating,Melon Aphid; 50 ppm,2 (21-30)
same,mortality rating,Melon Aphid; 100 ppm,4 (41-50)
same,mortality rating,Melon Aphid; 250 ppm,9 (91-100)
same,mortality rating,Melon Aphid; 500 ppm,9 (91-100)
same,mortality rating,Melon Aphid; 1000 ppm,9 (91-100)
same,mortality rating,Southern Armyworm; 1000 ppm,1 (11-20)
same,mortality rating,House Fly; 10 ppm,0 (0-10)
same,mortality rating,House Fly; 25 ppm,0 (0-10)
same,mortality rating,House Fly; 50 ppm,9 (91-100)
same,mortality rating,House Fly; 100 ppm,9 (91-100)
same,mortality rating,House Fly; 250 ppm,9 (91-100)
same,mortality rating,House Fly; 500 ppm,9 (91-100)
same,mortality rating,House Fly; 1000 ppm,9 (91-100)
same,average mortality rating,Alfalfa Weevil Larvae [4]; 500 ppm,2
same,average mortality rating,Alfalfa Weevil Larvae [4]; 750 ppm,6
same,average mortality rating,Alfalfa Weevil Larvae [4]; 1000 ppm,7
same,average mortality rating,Asparagus Beetles Adults; 10 ppm,3
same,average mortality rating,Asparagus Beetles Adults; 25 ppm,8
same,average mortality rating,Asparagus Beetles Adults; 50 ppm,9 (91-100 percent mortality)
same,average mortality rating,Alfalfa Weevil Larvae [5]; 0.03 μg/μl,2
same,average mortality rating,Alfalfa Weevil Larvae [5]; 0.07 μg/μl,1
same,average mortality rating,Alfalfa Weevil Larvae [5]; 0.1 μg/μl,4
same,insect mortality rating,Picnic Beetle [6],9 (91-100 percent mortality)
same,insect mortality rating,Picnic Beetle [7],9 (91-100 percent mortality)

# — patent US4122184A, “Benzimidazole insecticides” (priority 1977, dated 1978)
